Data as given in ChEMBL document CHEMBL1201862, “PubChem BioAssay data set” (2004).
Active and inactive are the calls of the source.

Key:
[1] = inhibition of ADAM10 peptide cleavage – biochemical, FRET peptide substrate, recombinant human ADAM10, selectivity assay for ADAM17 exosite inhibitor project, dose response (AID 743259);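 note: ADAM10 enzyme cleaving a FRET peptide substrate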
[2] = biological target: Disintegrin and metalloproteinase domain-containing protein 17 (Homo sapiens, UniProt P78536); experiment: exosite inhibitors of ADAM17, dose response, biochemical (AID 743260)
Sequence of Disintegrin and metalloproteinase domain-containing protein 17 (P78536 whole entry, the tested form may be a part): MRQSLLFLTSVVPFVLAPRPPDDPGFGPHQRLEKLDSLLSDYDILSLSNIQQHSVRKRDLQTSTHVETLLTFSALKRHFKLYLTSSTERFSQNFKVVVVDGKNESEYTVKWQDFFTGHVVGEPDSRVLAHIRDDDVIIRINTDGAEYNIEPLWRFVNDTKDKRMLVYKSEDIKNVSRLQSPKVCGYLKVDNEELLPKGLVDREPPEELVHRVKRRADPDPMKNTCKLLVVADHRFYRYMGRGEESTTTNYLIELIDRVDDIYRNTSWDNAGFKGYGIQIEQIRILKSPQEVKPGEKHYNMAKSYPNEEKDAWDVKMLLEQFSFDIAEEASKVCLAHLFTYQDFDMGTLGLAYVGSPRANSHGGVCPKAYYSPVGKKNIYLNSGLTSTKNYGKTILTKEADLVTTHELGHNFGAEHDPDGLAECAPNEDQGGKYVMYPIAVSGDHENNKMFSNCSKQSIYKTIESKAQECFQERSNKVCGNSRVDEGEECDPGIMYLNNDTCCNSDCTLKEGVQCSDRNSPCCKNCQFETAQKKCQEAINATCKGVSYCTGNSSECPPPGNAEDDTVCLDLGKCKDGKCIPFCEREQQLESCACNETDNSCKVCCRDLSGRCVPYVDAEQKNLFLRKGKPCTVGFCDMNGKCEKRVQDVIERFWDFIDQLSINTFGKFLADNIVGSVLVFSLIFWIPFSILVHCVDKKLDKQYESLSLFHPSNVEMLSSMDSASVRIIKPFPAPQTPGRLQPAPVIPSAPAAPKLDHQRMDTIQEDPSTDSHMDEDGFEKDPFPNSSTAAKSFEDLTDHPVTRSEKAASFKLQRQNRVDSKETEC

[3] = biological target: CAAX prenyl protease 2 (Homo sapiens, UniProt Q9Y256); experiment: inhibition of Ras-converting CAAX protease Rce1 – biochemical, yeast membranes, quenched-peptide fluorescence, cherry-pick, dose response (AID 588849)
Sequence of CAAX prenyl protease 2 (Q9Y256 whole entry): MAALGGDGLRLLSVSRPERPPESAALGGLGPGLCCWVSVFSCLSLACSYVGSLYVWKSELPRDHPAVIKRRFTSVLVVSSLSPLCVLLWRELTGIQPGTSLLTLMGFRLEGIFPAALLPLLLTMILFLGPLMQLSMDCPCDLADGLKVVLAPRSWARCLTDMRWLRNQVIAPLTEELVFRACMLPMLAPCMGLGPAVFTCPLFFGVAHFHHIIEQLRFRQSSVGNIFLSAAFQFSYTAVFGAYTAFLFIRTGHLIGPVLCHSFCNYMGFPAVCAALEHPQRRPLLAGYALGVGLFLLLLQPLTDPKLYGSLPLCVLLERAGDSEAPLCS

[4] = Trypanosoma cruzi growth suppression in host cells – NIH3T3 host cells, beta-gal luminescence, confirmation (AID 2044); assay type: functional, cell-based;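 note: intracellular parasites grown in NIH/3T3 mouse fibroblasts as host cells; luminescent beta-galactosidase reporter signal from transgenic T. cruzi replicating inside host cells; inhibitors lower the luminescence signal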
[5] = biological target: T1, Insulin-degrading enzyme (Homo sapiens, UniProt P14735); experiment: cellular IDE activation of Abeta substrate cleavage – fluorescence polarization, HEK cells, dose response (AID 588439); assay type: functional, cell-based
T1 sequence (P14735 whole entry): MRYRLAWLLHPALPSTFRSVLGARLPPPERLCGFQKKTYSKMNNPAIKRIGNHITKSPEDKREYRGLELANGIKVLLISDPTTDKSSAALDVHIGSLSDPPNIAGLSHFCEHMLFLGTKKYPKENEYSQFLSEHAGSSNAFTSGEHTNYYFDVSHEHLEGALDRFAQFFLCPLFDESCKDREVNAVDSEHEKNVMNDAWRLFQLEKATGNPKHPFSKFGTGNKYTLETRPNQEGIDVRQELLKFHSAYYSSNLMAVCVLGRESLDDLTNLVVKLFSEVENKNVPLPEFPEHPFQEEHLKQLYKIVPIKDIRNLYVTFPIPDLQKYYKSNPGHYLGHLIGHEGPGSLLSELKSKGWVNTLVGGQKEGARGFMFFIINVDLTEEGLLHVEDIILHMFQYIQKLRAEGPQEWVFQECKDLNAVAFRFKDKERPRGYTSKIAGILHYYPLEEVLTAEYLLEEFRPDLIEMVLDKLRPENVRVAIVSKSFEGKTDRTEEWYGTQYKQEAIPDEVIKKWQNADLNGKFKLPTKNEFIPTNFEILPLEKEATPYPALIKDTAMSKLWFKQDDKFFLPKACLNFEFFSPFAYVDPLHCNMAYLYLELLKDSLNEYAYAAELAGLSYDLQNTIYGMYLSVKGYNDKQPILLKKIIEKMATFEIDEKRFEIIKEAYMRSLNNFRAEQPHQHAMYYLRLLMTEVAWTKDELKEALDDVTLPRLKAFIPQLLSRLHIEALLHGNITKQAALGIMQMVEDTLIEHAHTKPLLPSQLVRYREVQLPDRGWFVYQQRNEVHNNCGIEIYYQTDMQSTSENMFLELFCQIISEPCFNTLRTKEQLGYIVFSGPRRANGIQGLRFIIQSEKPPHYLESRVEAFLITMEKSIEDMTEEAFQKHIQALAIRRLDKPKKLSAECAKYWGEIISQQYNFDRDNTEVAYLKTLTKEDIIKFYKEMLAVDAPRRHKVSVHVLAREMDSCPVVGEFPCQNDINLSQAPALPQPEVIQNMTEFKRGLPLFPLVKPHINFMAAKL

[6] = test system: HEK293; experiment: optical interference in Abeta FP readout, dose response, artefact control for IDE activator project, biochemical, fluorescence polarization (AID 588442); assay type: functional, cell-based; conditions: Homo sapiens
[7] = biological target: T1, Insulin-degrading enzyme; experiment: recombinant IDE activation, cell-free – biochemical, fluorescence polarization, counter-screen for IDE activator project, dose response (AID 588681)
[8] = test system: HEK293; experiment: membrane integrity loss in HEK cells – cell-based, fluorescence, cytotoxicity control for IDE activator project, dose response (AID 588440); assay type: functional; conditions: Homo sapiens;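 note: cytotoxicity by LDH release measuring loss of membrane integrity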
[9] = NIH3T3 cell viability loss – ATP luminescence, mouse fibroblasts, counter-screen, dose response (AID 2010); assay type: functional, cell-based;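 note: cells exposed to compound for about 90 hours before reading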
[10] = test system: Vero; experiment: mammalian cell viability reduction – secondary assay, cytotoxicity control for West Nile virus antiviral project, dose response (AID 1650); assay type: functional; conditions: Chlorocebus sabaeus
[11] = biological target: Dual specificity protein kinase CLK1 (Homo sapiens, UniProt P49759); experiment: inhibition of human CLK1 activity – biochemical, cherry-picked samples, selectivity assay for Dyrk1A inhibitor project, dose response (AID 588811)
Sequence of Dual specificity protein kinase CLK1 (P49759 whole entry): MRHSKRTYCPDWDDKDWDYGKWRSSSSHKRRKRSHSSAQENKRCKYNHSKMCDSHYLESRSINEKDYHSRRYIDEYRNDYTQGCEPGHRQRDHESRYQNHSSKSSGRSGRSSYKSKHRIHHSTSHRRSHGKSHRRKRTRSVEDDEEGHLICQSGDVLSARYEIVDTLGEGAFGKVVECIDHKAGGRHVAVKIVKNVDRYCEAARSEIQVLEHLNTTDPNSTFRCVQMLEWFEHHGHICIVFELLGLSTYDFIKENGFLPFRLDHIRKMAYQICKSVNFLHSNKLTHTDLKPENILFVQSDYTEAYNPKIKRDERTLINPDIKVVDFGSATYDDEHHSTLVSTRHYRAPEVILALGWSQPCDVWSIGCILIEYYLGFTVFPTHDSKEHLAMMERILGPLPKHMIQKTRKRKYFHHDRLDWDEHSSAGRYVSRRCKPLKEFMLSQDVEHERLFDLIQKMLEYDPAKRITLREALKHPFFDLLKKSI

[12] = biological target: T2, Interleukin-8 (Homo sapiens, UniProt P10145); experiment: Dose Response confirmation of uHTS small molecule hits for cystic fibrosis induced NFkb Inhibitors in a PAF-induced IL8 counterscreen.; assay type: functional; conditions: read-out: IC50_Mean
T2 sequence (P10145 whole entry): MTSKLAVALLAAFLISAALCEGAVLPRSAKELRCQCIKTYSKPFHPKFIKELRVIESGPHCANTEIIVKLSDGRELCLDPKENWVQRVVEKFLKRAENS

[13] = biological target: Dual specificity tyrosine-phosphorylation-regulated kinase 1A (Rattus norvegicus, UniProt Q63470); assay type: biochemical, Homo sapiens

## O=C(Nc1cccc2ccccc12)c1ccc(OC(=S)N2CCOCC2)cc1
[1]
  IC50: > 69.5 µM (inactive)
[2]
  IC50: > 69.5 µM (inactive)
[3]
  AC50: > 100 µM (inactive)

## CCN1CCN(c2cc(C)c3cc(NC(=S)N4CCN(c5ccccc5)CC4)ccc3n2)CC1
[4]
  EC50: 1.79 µM (active)
[5]
  EC50: > 54.7 µM (inactive)
[6]
  EC50: > 54.7 µM (inactive)
[7]
  EC50: > 54.7 µM (inactive)
[8]
  IC50: > 89.2 µM (inactive)
[9]
  EC50: > 60 µM (not active)
[10]
  CC50: 19.5 µM (active)

## CC1Cc2ccccc2N1c1ncnc2nc[nH]c12 (stereo not drawn)
[11]
  AC50: 0.19 µM (active)
[12]
  IC50: 10.5 µM (inactive)
[13]
  AC50: 0.811 µM (active)
